# Measured values: patent US4889634A, “Dialysate solution containing hydroxypropyl-beta-cyclodextrin and method of using same” (priority 1988, dated 1989)
# Tested on: rats [Crl:CD(SD) BR strain]
# Assay: 14-day intravenous toxicity study in rats
# Assay type: in vivo, rat
# Conditions: for Number of deaths: 200 mg/kg i.v. every second day
# Method: As part of the toxicological evaluation of HPBCD, control groups of animals were dosed with HPBCD alone.
# Two groups (5/sex/group) of rats [Crl:CD(SD) BR strain] were used for this study. Control rats were given 200 mg of salt per kilogram of body weight intravenously administered in a saline control solution comprising 20% salt by weight in water. The saline control was administered every second day for 14 days (i.e. seven injections). The treated rats were given 200 mg of HPBCD per kilogram of body weight intravenously administered (200 mg/kg i.v. HPBCD) via a HPBCD solution containing 20% HPBCD by weight in water on the same injection schedule. […] At the end of the study the animals were necropsied, gross pathology was observed, histopathological samples were prepared and blood was drawn for clinical laboratory measurements.
# [1] = female rats, 200 mg/kg i.v., 14 days
# [2] = male rats, 200 mg/kg i.v., 14 days
substance,measurement,setting,value
hydroxypropyl-beta-cyclodextrin [HPBCD],Albumin/Globulin (Ratio),[1],0.9 ± 0.06
same,Triglycerides,[1],35.0 ± 12.00 mg/dL
same,White blood cells,[1],7.4 ± 2.56 × 10^3 /mm^3
same,Number of observations (antemortem),"female, 200 mg/kg i.v.",0/5
same,Number of deaths,"female, 14 days",0/5
same,Body weight gain,"female, week 1, 200 mg/kg i.v.",16.0 ± 5.00 Grams
same,Food intake,"female, week 1, 200 mg/kg i.v.",107.9 ± 10.59 Grams
same,Body weight gain,"female, week 2, 200 mg/kg i.v.",18.0 ± 4.21 Grams
same,Food intake,"female, week 2, 200 mg/kg i.v.",112.1 ± 12.47 Grams
same,Adrenals weight to total body weight ratio,females,0.0328 Weight Percent of Total Body W
same,Kidney weight to total body weight ratio,females,0.9937 Weight Percent of Total Body W
same,Body weight gains vs saline control,in words,No difference
same,Food intake vs saline control,in words,No difference
same,Gross pathology,in words,No changes in gross pathology attributable to HPBCD treatment were observed
same,Abumin/Globulin (Ratio),[2],0.9 ± 0.08
same,Alanine amino transferase,[2],24.0 ± 6.70 IU/L
same,Albumin,[2],3.0 ± 0.08 G/dL
same,Alkaline phosphatase,[2],137.0 ± 26.20 IU/L
same,Aspartate amino transferase,[2],124.0 ± 37.36 IU/L
same,Basophils,[2],0.00 ± 0.00 × 10^3 /mm^3
same,Blood urea nitrogen,[2],11.2 ± 0.87 mg/dL
same,Calcium,[2],9.8 ± 0.31 mg/dL
same,Chlorine,[2],106.0 ± 1.80 mmol/L
same,Cholesterol,[2],33.0 ± 7.10 mg/dL
same,Creatinine,[2],0.8 ± 0.04 mg/dL
same,Eosinophils,[2],0.07 ± 0.05 × 10^3 /mm^3
same,Globulin,[2],3.3 ± 0.20 G/dL
same,Glucose (blood),[2],94.1 ± 7.43 mg/dL
same,Hematocrit,[2],48.6 ± 1.74%
same,Hemoglobin,[2],14.6 ± 0.51 G/DL
same,Ionic phosphate,[2],9.7 ± 0.34 mg/dL
same,Lymphocytes,[2],7.13 ± 1.08 × 10^3 /mm^3
same,Mean corpuscle,[2],64.0 ± 2.20 fL
same,Mean corpuscle hemoglobin,[2],19.3 ± 0.60 pg
same,Mean corpuscle hemoglobin concentrative,[2],30.0 ± 0.35%
same,Monocytes,[2],0.08 ± 0.01 × 10^3 /mm^3
same,Normal blood cells,[2],0 ± 0.0 /100 white blood cells
same,Platelet count,[2],1020.0 ± 79.5 × 10^3 /mm^3
same,Potassium,[2],4.7 ± 0.15 mmol/L
same,Red blood cell,[2],7.55 ± 0.17 × 10^6 /mm^3
same,Segmented neutrophils,[2],0.61 ± 0.44 × 10^3 /mm^3
same,Sodium,[2],142 ± 1.5 mM
same,Total bilirubin,[2],0.2 ± 0.04 mg/dL
same,Total proteins,[2],6.3 ± 0.18 G/dL
same,Triglycerides,[2],57.0 ± 17.10 mg/dL
same,White blood cells,[2],7.9 ± 1.18 × 10^3 /mm^3
same,Number of deaths,"male, 14 days",0/5
same,Kidney weight to total body weight ratio,males,0.9022 Weight Percent of Total Body W
same,Adrenals weight to total body weight ratio,"rat, in vivo",0.0212 Weight Percent of Total Body W
same,Clinical laboratory values vs controls,"rat, in vivo",no observed clinically significant differences
same,Epididymes weight to total body weight ratio,"rat, in vivo",0.2635 Weight Percent of Total Body W
same,Organ to body ratios between groups,"rat, in vivo",not different between the groups
same,Ovaries weight to total body weight ratio,"rat, in vivo",0.0574 Weight Percent of Total Body W
same,Prostate weight to total body weight ratio,"rat, in vivo",0.2091 Weight Percent of Total Body W
same,Testes weight to total body weight ratio,"rat, in vivo",1.0209 Weight Percent of Total Body W
same,Uterus weight to total body weight ratio,"rat, in vivo",0.3278 Weight Percent of Total Body W
same,Alanine amino transferase,"rat, in vivo, iv, 200 mg/kg",21.0 ± 2.30 IU/L
same,Albumin,"rat, in vivo, iv, 200 mg/kg",3.1 ± 0.08 G/dL
same,Alkaline phosphatase,"rat, in vivo, iv, 200 mg/kg",109.0 ± 16.20 IU/L
same,Aspartate amino transferase,"rat, in vivo, iv, 200 mg/kg",102.0 ± 162.00 IU/L
same,Basophils,"rat, in vivo, iv, 200 mg/kg",0.00 ± 0.00 × 10^3 /mm^3
same,Blood urea nitrogen,"rat, in vivo, iv, 200 mg/kg",13.2 ± 2.52 mg/dL
same,Calcium,"rat, in vivo, iv, 200 mg/kg",10.1 ± 0.82 mg/dL
same,Chlorine,"rat, in vivo, iv, 200 mg/kg",107.0 ± 2.60
same,Cholesterol,"rat, in vivo, iv, 200 mg/kg",52.0 ± 18.60 mg/dL
same,Creatinine,"rat, in vivo, iv, 200 mg/kg",0.8 ± 0.11 mg/dL
same,Eosinophils,"rat, in vivo, iv, 200 mg/kg",0.06 ± 0.04 × 10^3 /mm^3
same,Globulin,"rat, in vivo, iv, 200 mg/kg",3.4 ± 0.26 G/dL
same,Glucose (blood),"rat, in vivo, iv, 200 mg/kg",100.0 ± 14.07 mg/dL
same,Hematocrit,"rat, in vivo, iv, 200 mg/kg",47.2 ± 5.59%
